Data reported in US8273716B2, “Use of LHRH antagonists for intermittent treatments” (Spectrum Pharmaceuticals, Inc., priority 2008, dated 2012).

Tests used:
[1] = system: study subjects; assay: Treatment of study subjects with peroral daily doses according to intermittent administration schemes; assay type: in vivo, human; conditions: same doses and administration schemes; 50-150 mg perorally daily as a single dose
Protocol: (§1) Study subjects are treated with compound (76) with the following doses according to the following administration schemes: • in a 3 month trial, 75 mg or 150 mg compound (76) administered perorally daily as a single dose on day 2-7 of the menstrual cycle • in a 3 months trial, 75 mg, 100 mg or 150 mg compound (76) administered perorally daily as a single dose on day 2-7 of the menstrual cycle followed by a 3 months treatment-free period • in a 6 months trial, 75 mg or 150 mg compound (76) administered perorally daily as a single dose • 50 mg or 150 mg per compound (76) administered daily as a single dose over 42 days (6 weeks)
as §1, with “(68)” for “(76)”
as §1, with “36” for “(76)”
as §1, with “37” for “(76)”
as §1, with “52” for “(76)”
as §1, with “144” for “(76)”, “weeks) […]” for “weeks)”

[2] = target: LHRH receptor (Homo sapiens, UniProt P30968); conditions: Cho N et al., J. Med. Chem. 1998; cited from earlier work
Sequence of LHRH receptor (P30968 whole entry): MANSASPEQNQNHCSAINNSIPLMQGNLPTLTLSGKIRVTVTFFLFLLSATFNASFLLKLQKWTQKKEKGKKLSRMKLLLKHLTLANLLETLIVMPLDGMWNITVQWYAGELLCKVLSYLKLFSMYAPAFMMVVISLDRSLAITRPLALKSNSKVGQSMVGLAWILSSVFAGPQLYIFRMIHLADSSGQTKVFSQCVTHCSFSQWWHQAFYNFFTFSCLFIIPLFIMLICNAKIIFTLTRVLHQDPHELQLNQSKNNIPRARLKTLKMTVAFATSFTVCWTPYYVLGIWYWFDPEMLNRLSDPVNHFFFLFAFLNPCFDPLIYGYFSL

[3] = in vivo; cited from earlier work

| SMILES | prevention of chemical (hormonal) castration [1] | receptor affinity [2] | bioavailability [3] |
| --- | --- | --- | --- |
| CCC(C)[C@H](NC(=O)Cc1ccccc1F)C(=O)N[C@]1(C(=O)N[C@H](C(N)=S)C(C)CC)CCc2[nH]c3c(Cl)cc(F)cc3c2C1 (some centres unmarked) [compound (68)] | successfully prevented |  |  |
| CCC(C)[C@H](NC(=O)Cc1ccccc1F)C(=O)N[C@]1(C(=O)N[C@H](C(N)=S)C(C)CC)CCc2[nH]c3c(C(F)(F)F)cccc3c2C1 (stereo partly drawn) [compound (76), (R)-3-{(S)-2-[2-(2-fluorophenyl)acetylamino]-3-methylpentanoylamino}-8-trifluoro-methyl-2,3,4,9-tetrahydro-1H-carbazole-3-carboxylic acid ((S)-2-methyl-1-thio-carbamoylbutyl)amide] | successfully prevented |  |  |
| CC(C)OC(=O)c1cn(Cc2c(F)cccc2F)c2sc(-c3ccc(NC(=O)C(C)C)cc3)c(CN(C)Cc3ccccc3)c2c1=O [T-98475] |  | high | low |

Continued, in another order:

| prevention of chemical (hormonal) castration [1] | SMILES | receptor affinity [2] | bioavailability [3] |
| --- | --- | --- | --- |
| successfully prevented | CCC(C)[C@H](NC(=O)Cc1ccccc1F)C(=O)N[C@]1(C(=O)N[C@H](C(=S)NCN2CCOCC2)C(C)CC)CCc2[nH]c3c(C(F)(F)F)cccc3c2C1 (stereo partly drawn) [Compound 37, (R)-3-{(S)-2-[2-(2-Fluoro-phenyl)-acetylamino]-3-methyl-pentanoylamino}-8-trifluoromethyl-2,3,4,9-tetrahydro-1H-carbazole-3-carboxylic acid {(S)-2-methyl-1-[(morpholin-4-ylmethyl)-thiocarbamoyl]-butyl}-amide] |  |  |
| successfully prevented | CCC(C)[C@H](NC(=O)Cc1ccccc1F)C(=O)N[C@]1(C(=O)N[C@H](C(=O)NCN2CCOCC2)C(C)CC)CCc2[nH]c3c(C(F)(F)F)cccc3c2C1 (stereo partly drawn) [Compound 36, (R)-3-{(S)-2-[2-(2-Fluoro-phenyl)-acetylamino]-3-methyl-pentanoylamino}-8-trifluoromethyl-2,3,4,9-tetrahydro-1H-carbazole-3-carboxylic acid {(S)-2-methyl-1-[(morpholin-4-ylmethyl)-carbamoyl]-butyl}-amide] |  |  |
| successfully prevented | CCC(C)[C@H](NC(=O)Cc1ccccc1F)C(=O)N[C@]1(C(=O)N[C@H](C(=O)NNc2ccccc2)C(C)CC)CCc2[nH]c3c(C(F)(F)F)cccc3c2C1 (stereo partly drawn) [Compound 144, (R)-3-{(S)-2-[2-(2-Fluoro-phenyl)-acetylamino]-3-methyl-pentanoylamino}-8-trifluoromethyl-2,3,4,9-tetrahydro-1H-carbazole-3-carboxylic acid [(S)-2-methyl-1-(N′-phenyl-hydrazinocarbonyl)-butyl]-amide] |  |  |
| successfully prevented | CCC(C)[C@H](NC(=O)Cc1ccccc1F)C(=O)N[C@]1(C(=O)N[C@H](C(=S)NCC2CCOCC2)C(C)CC)CCc2[nH]c3c(C(F)(F)F)cccc3c2C1 (stereo partly drawn) [Compound 52, (R)-3-{(S)-2-[2-(2-Fluoro-phenyl)-acetylamino]-3-methyl-pentanoylamino}-8-trifluoromethyl-2,3,4,9-tetrahydro-1H-carbazole-3-carboxylic acid {(S)-2-methyl-1-[(tetrahydro-pyran-4-ylmethyl)-thiocarbamoyl]-butyl}-amide] |  |  |
